Source: patent publication US4154830A, “Unsaturated derivatives of 7-acylamido-3-cephem-4-carboxylic acid” (Carlo Erba S.p.A., priority 1977, dated 1979)
≈ marks a conversion by molar mass, not a printed value. Read-outs that look alike come from different tables or passages of the source.

Legend:
Type in all cases: cell-based
[1] = tested on: Enterobacter cloacae 1321E; assay: minimal inhibiting concentration (MIC), Gram-negative bacteria
Escherichia coli 1507 = assay: as above
[2] = tested on: Diplococcus pneumoniae ATCC6301; assay: minimal inhibiting concentration (MIC), Gram-positive bacteria; settings: Streptococcus pneumoniae
[3] = tested on: Staphylococcus aureus Smith; assay: as above
[4] = tested on: Klebsiella aerogenes 1522E; assay: minimal inhibiting concentration (MIC), Gram-negative bacteria
[5] = tested on: Proteus mirabilis ATCC9921; assay: as above
Diplococcus aureus 39/2 = assay: minimal inhibiting concentration (MIC), Gram-positive bacteria
[6] = tested on: Enterobacter aerogenes ATCC8308; assay: minimal inhibiting concentration (MIC), Gram-negative bacteria; settings: Klebsiella aerogenes
[7] = tested on: Streptococcus β-haemolyticus C203; assay: minimal inhibiting concentration (MIC), Gram-positive bacteria
[8] = tested on: Shigella sonnei ATCC11060; assay: minimal inhibiting concentration (MIC), Gram-negative bacteria
Salmonella typhi Watson = assay: as above; settings: Salmonella enterica
[9] = tested on: Klebsiella pneumoniae ATCC 10031; assay: as above; settings: ATCC10031
Escherichia coli G = assay: as above
Haemophylus influenzae = assay: activity against Haemophylus influenzae in comparison with Cefazolin; settings: 7 strains tested
Source text: (§1) The pharmaceutical or veterinary compositions containing the compounds of the invention may be prepared in a conventional way by employing the conventional carriers and/or diluents used for the other cephalosporins. Conventional carriers or diluents are, for example, water, gelatine, lactose, starches, magnesium stearate, talc, vegetable oils, cellulose and the like.

[10] = tested on: 60 strains of Gram-negative microorganisms comprising Klebsiella, Escherichia coli, Proteus mirabilis and Proteus vulgaris; assay: activity on a series of 60 strains of Gram-negative microorganisms in comparison with Cefazolin
Source text: as §1

staphylococci = assay: activity against staphylococci compared with Cefazolin
Source text: as §1

[11] = tested on: streptococci (including diplococci); assay: activity against streptococci (including diplococci) compared with Cefazolin
Source text: as §1

Gram-negative bacteria = assay: activity against Gram-negative bacteria
Source text: The compounds of the invention may be administered, either to humans or to animals, in a variety of dosage forms, e.g., orally in the form of tablets, capsules, drops or syrups; rectally in the form of suppositories; parenterally, e.g. intravenously or intramuscolarly (as solutions or suspensions), with intravenous administration being preferred in emergency situation; by inhalation in the form of aerosols or solutions for nebulizers; intravaginally in the form, e.g. of bougies; or topically in the form of lotions, creams and ointments. The pharmaceutical or veterinary compositions containing the compounds of the invention may be prepared in a conventional way by employing the conventional carriers and/or diluents used for the other cephalosporins. Conventional carriers or diluents are, for example, water, gelatine, lactose, starches, magnesium stearate, talc, vegetable oils, cellulose and the like. Daily doses in the range of about 1 to about 100 mg per kg of body weight may be used, in various animal species, the exact dose depending on the age, weight and condition of the subject to be treated and on the frequency and route of administration. […]

[12] = Escherichia coli G, read-out: MIC

SMILES: Cn1nnnc1SCC1=C(C(=O)O)N2C(=O)C(NC(=O)[C@H](O)c3ccccc3)[C@H]2SC1 (stereo partly drawn) [Cefamandole, 7-D-mandelamido-3-{[(1-methyl-1H-tetrazol-5-yl)-thio]-methyl}-3-cephem-4-carboxylic acid, reference compound]
- MIC [1]: 1.6 µg/mL (≈ 3.46 µM)
- MIC (Escherichia coli 1507): 0.8 µg/mL (≈ 1.73 µM)
- MIC [2]: 0.019 µg/mL (≈ 0.0411 µM)
- MIC [3]: 0.15 µg/mL (≈ 0.324 µM)
- MIC [4]: 0.4 µg/mL (≈ 0.865 µM)
- MIC [5]: 1.6 µg/mL (≈ 3.46 µM)
- MIC (Diplococcus aureus 39/2): 1.2 µg/mL (≈ 2.59 µM)
- MIC [6]: 1.6 µg/mL (≈ 3.46 µM)
- MIC [7]: 0.019 µg/mL (≈ 0.0411 µM)
- MIC [8]: 2.35 µg/mL (≈ 5.08 µM)
- MIC (Salmonella typhi Watson): 0.6 µg/mL (≈ 1.3 µM)
- MIC [9]: 0.15 µg/mL (≈ 0.324 µM)
- MIC (Escherichia coli G; Escherichia coli): 2.35 µg/mL (≈ 5.08 µM)

SMILES: Cc1nnc(SCC2=C(C(=O)O)N3C(=O)[C@@H](NC(=O)Cn4cnnn4)[C@H]3SC2)s1 [Cefazolin, 7-(1-(1H)-tetrazolylacetamido)-3-[2-(5-methyl-1,3,4-thiadiazolyl)-thiomethyl]-3-cephem-4-carboxylic acid, reference compound]
- MIC [1]: 3.1 µg/mL (≈ 6.82 µM)
- MIC (Escherichia coli 1507): 1.6 µg/mL (≈ 3.52 µM)
- MIC [2]: 0.05 µg/mL (≈ 0.11 µM)
- MIC [3]: 0.05 µg/mL (≈ 0.11 µM)
- MIC [4]: 1.1 µg/mL (≈ 2.42 µM)
- MIC [5]: 6.2 µg/mL (≈ 13.6 µM)
- MIC (Diplococcus aureus 39/2): 0.6 µg/mL (≈ 1.32 µM)
- MIC [6]: 1.2 µg/mL (≈ 2.64 µM)
- MIC [7]: 0.05 µg/mL (≈ 0.11 µM)
- MIC [8]: 1.6 µg/mL (≈ 3.52 µM)
- MIC (Salmonella typhi Watson): 1.6 µg/mL (≈ 3.52 µM)
- MIC [9]: 0.8 µg/mL (≈ 1.76 µM)
- MIC (Escherichia coli G; [12]): 1.6 µg/mL (≈ 3.52 µM)

SMILES: Cc1nnc(SCC2=C(C(=O)O)N3C(=O)C(NC(=O)CSCC#N)C3SC2)s1 (stereo not shown) [K 9227, 7-[(cyanomethyl-thio)-acetamido]-3-[2-(5-methyl-1,3,4-thiadiazolyl)-thiomethyl]-3-cephem-4-carboxylic acid, reference compound]
- MIC [1]: 3.1 µg/mL (≈ 6.77 µM)
- MIC (Escherichia coli 1507): 1.6 µg/mL (≈ 3.5 µM)
- MIC [2]: 0.4 µg/mL (≈ 0.874 µM)
- MIC [3]: 0.05 µg/mL (≈ 0.109 µM)
- MIC [4]: 1.6 µg/mL (≈ 3.5 µM)
- MIC [5]: 12.5 µg/mL (≈ 27.3 µM)
- MIC (Diplococcus aureus 39/2): 0.2 µg/mL (≈ 0.437 µM)
- MIC [6]: 1.2 µg/mL (≈ 2.62 µM)
- MIC [7]: 0.025 µg/mL (≈ 0.0546 µM)
- MIC [8]: 1.6 µg/mL (≈ 3.5 µM)
- MIC (Salmonella typhi Watson): 0.8 µg/mL (≈ 1.75 µM)
- MIC [9]: 0.4 µg/mL (≈ 0.874 µM)
- MIC (Escherichia coli G; [12]): 3.1 µg/mL (≈ 6.77 µM)

SMILES: Cn1nnnc1SCC1=C(C(=O)O)N2C(=O)C(NC(=O)CSCC#N)C2SC1 (stereo not shown) [K 10299, 7-[(cyanomethyl-thio)-acetamido]-3-[5-(1-methyl-1,2,3,4-tetrazolyl)-thiomethyl]-3-cephem-4-carboxylic acid, reference compound]
- MIC [1]: 1.6 µg/mL (≈ 3.62 µM)
- MIC (Escherichia coli 1507): 0.8 µg/mL (≈ 1.81 µM)
- MIC [2]: 0.2 µg/mL (≈ 0.453 µM)
- MIC [3]: 0.075 µg/mL (≈ 0.17 µM)
- MIC [4]: 0.8 µg/mL (≈ 1.81 µM)
- MIC [5]: 6.2 µg/mL (≈ 14 µM)
- MIC (Diplococcus aureus 39/2): 0.4 µg/mL (≈ 0.906 µM)
- MIC [6]: 0.6 µg/mL (≈ 1.36 µM)
- MIC [7]: 0.037 µg/mL (≈ 0.0838 µM)
- MIC [8]: 1.6 µg/mL (≈ 3.62 µM)
- MIC (Salmonella typhi Watson): 0.2 µg/mL (≈ 0.453 µM)
- MIC [9]: 0.2 µg/mL (≈ 0.453 µM)
- MIC (Escherichia coli G; [12]): 0.8 µg/mL (≈ 1.81 µM)

SMILES: Cn1nnnc1SCC1=C(C(=O)O)N2C(=O)C(NC(=O)CS/C=C/C(N)=O)C2SC1 (stereo not drawn) [K 11457, 7-[β-carboxamido-ethylene(trans)-thio-acetamido]-3-[(1-methyl-1,2,3,4-tetrazol-5-yl)-thiomethyl]-3-cephem-4-carboxylic acid]
- MIC [1]: 1.6 µg/mL (≈ 3.39 µM)
- MIC (Escherichia coli 1507): 0.4 µg/mL (≈ 0.848 µM)
- MIC [2]: 0.025 µg/mL (≈ 0.053 µM)
- MIC [3]: 0.1 µg/mL (≈ 0.212 µM)
- MIC [4]: 0.2 µg/mL (≈ 0.424 µM)
- MIC [5]: 3.1 µg/mL (≈ 6.57 µM)
- MIC (Diplococcus aureus 39/2): 0.4 µg/mL (≈ 0.848 µM)
- MIC [6]: 0.4 µg/mL (≈ 0.848 µM)
- MIC [7]: 0.025 µg/mL (≈ 0.053 µM)
- MIC [8]: 1.6 µg/mL (≈ 3.39 µM)
- MIC (Salmonella typhi Watson): 0.2 µg/mL (≈ 0.424 µM)
- MIC [9]: 0.15 µg/mL (≈ 0.318 µM)
- MIC (Escherichia coli G; [12]): 0.4 µg/mL (≈ 0.848 µM)

SMILES: Cn1nnnc1SCC1=C(C(=O)O)N2C(=O)C(NC(=O)CS/C=C\C(N)=O)C2SC1 (stereo not drawn) [K 13031, 7-[β-carboxamido-ethylene(cis)-thio-acetamido]-3-[(1-methyl-1,2,3,4-tetrazol-5-yl)-thiomethyl]-3-cephem-4-carboxylic acid]
- MIC [1]: 0.8 µg/mL (≈ 1.7 µM)
- MIC (Escherichia coli 1507): 0.4 µg/mL (≈ 0.848 µM)
- MIC [2]: 0.012 µg/mL (≈ 0.0254 µM)
- MIC [3]: 0.1 µg/mL (≈ 0.212 µM)
- MIC [4]: 0.2 µg/mL (≈ 0.424 µM)
- MIC [5]: 0.8 µg/mL (≈ 1.7 µM)
- MIC (Diplococcus aureus 39/2): 0.2 µg/mL (≈ 0.424 µM)
- MIC [6]: 0.3 µg/mL (≈ 0.636 µM)
- MIC [7]: < 0.012 µg/mL
- MIC [8]: 0.3 µg/mL (≈ 0.636 µM)
- MIC (Salmonella typhi Watson): 0.2 µg/mL (≈ 0.424 µM)
- MIC [9]: 0.2 µg/mL (≈ 0.424 µM)
- MIC (Escherichia coli G; [12]): 0.8 µg/mL (≈ 1.7 µM)

SMILES: Cn1nnnc1SCC1=C(C(=O)O)N2C(=O)C(NC(=O)CS/C=C\C#N)C2SC1 (stereo not drawn) [K 13101, 7-[β-cyano-ethylene(cis)-thio-acetamido]-3-[(1-methyl-1,2,3,4-tetrazol-5-yl)-thiomethyl]-3-cephem-4-carboxylic acid]
- MIC [1]: 0.56 µg/mL (≈ 1.23 µM)
- MIC (Escherichia coli 1507): 0.1 µg/mL (≈ 0.22 µM)
- MIC [2]: 0.012 µg/mL (≈ 0.0265 µM)
- times more active than Cefazolin (Haemophylus influenzae): about 6 times
- activity in comparison with Cefazolin [10]: always found to be more active than Cefazolin
- MIC [3]: 0.025 µg/mL (≈ 0.0551 µM)
- MIC [4]: 0.1 µg/mL (≈ 0.22 µM)
- MIC [5]: 0.4 µg/mL (≈ 0.882 µM)
- times more active than Cefazolin (staphylococci): about 2 times
- times more active than Cefazolin [11]: about 4.2 times
- MIC (Diplococcus aureus 39/2): 0.14 µg/mL (≈ 0.309 µM)
- MIC [6]: 0.2 µg/mL (≈ 0.441 µM)
- MIC [7]: 0.012 µg/mL (≈ 0.0265 µM)
- MIC [8]: 0.8 µg/mL (≈ 1.76 µM)
- times more active than Cefazolin (Gram-negative bacteria): about 9.6 times
- MIC (Salmonella typhi Watson): 0.07 µg/mL (≈ 0.154 µM)
- MIC [9]: 0.1 µg/mL (≈ 0.22 µM)
- MIC (Escherichia coli G; [12]): 0.14 µg/mL (≈ 0.309 µM)

SMILES: N#C/C=C\SCC(=O)NC1C(=O)N2C(C(=O)O)=C(CSc3nncs3)CSC12 (stereo not drawn) [K 13107, 7-[β-cyano-ethylene(cis)-thio-acetamido]-3-[(1,3,4-thiadiazol-2-yl)-thiomethyl]-3-cephem-4-carboxylic acid]
- MIC [1]: 1.6 µg/mL (≈ 3.51 µM)
- MIC (Escherichia coli 1507): 0.57 µg/mL (≈ 1.25 µM)
- MIC [2]: < 0.006 µg/mL
- MIC [3]: 0.025 µg/mL (≈ 0.0549 µM)
- MIC [4]: 0.28 µg/mL (≈ 0.615 µM)
- MIC [5]: 0.4 µg/mL (≈ 0.878 µM)
- MIC (Diplococcus aureus 39/2): 0.14 µg/mL (≈ 0.307 µM)
- MIC [6]: 0.4 µg/mL (≈ 0.878 µM)
- MIC [7]: < 0.006 µg/mL
- MIC [8]: 1.6 µg/mL (≈ 3.51 µM)
- MIC (Salmonella typhi Watson): 0.2 µg/mL (≈ 0.439 µM)
- MIC [9]: 0.2 µg/mL (≈ 0.439 µM)
- MIC (Escherichia coli G; [12]): 0.57 µg/mL (≈ 1.25 µM)
